Measured values from PMC5557891, “Time-lapse crystallography snapshots of a double-strand break repair polymerase in action” (Nature Communications, 2017).

Target: T1, pol μ (truncated human wild-type DNA polymerase μ) (Homo sapiens, UniProt Q9NP87, DEL398-410)
T1 construct: gene POLM; recalled: residues about 132-494; loop2 'previously truncated to improve crystallizability' (between Pro397 and Ser411; recalled deletion Pro398-Pro410); GST fusion from pGEXM, tag cut on resin with TEV; E. coli BL21(DE3)CodonPlus-RIPL; parent model PDB 4M04
Test: time-lapse X-ray crystallography
Type: binding
Settings: product complex after in crystallo TTP insertion into gapped DNA; 10 mM MgCl2 (60 min, 2.02 Å) or 10 mM MnCl2; 4 °C, pH 7.5

T1 sequence (Q9NP87 with tags, fused parts or gaps DEL398-410): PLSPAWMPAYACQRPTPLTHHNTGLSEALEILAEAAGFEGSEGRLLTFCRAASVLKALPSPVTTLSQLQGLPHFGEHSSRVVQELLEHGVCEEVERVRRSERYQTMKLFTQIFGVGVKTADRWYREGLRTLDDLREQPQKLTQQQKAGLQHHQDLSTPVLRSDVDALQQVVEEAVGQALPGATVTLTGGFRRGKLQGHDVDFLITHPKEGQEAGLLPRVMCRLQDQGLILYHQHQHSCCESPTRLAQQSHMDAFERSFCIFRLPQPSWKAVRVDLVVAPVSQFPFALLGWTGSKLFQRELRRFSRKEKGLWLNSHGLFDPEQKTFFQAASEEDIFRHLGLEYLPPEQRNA

O=P(O)(O)OP(=O)(O)O [PPi]
time-lapse X-ray crystallography: The position of Pβ of the PPi product is identical to that expected after bond cleavage
